Test results: US20160051567A1, “PREVENTION AND TREATMENT OF KIDNEY DAMAGE” (METSELEX, INC., priority 2013, published 2016)
“Also recorded” adds a separate entry of the source.

Columns and labels:
caspase-8 [1] = experiment: Western blot for caspase-8 in RPTE cells after cryopreservation injury; type: cell-based, human
Method: Cell culture: RPTE cells were grown in Renal Epithelial Cell Basal Medium (REBM) with full supplements at 37° C. in 5% CO2 incubator as per supplier's instructions. RPTE cells were able to proliferate for 6-8 passages under the culture conditions. Cryopreservation injury: We have utilized a published cell culture model of cryopreservation injury. In brief, RPTE cells were grown to 80% confluence in the complete medium containing TUDCA or vehicle. The complete medium was then replaced with University of Wisconsin solution containing TUDCA or vehicle. The culture plates were subsequently incubated in a temperature-regulated refrigerator at 4° C. for 48 hours. To simulate warm reperfusion phase of kidney transplantation, University of Wisconsin solution was replaced with complete medium containing TUDCA or vehicle, and cells were cultured for an additional 24 hours at 37° C. We used 100 μM or 150 μM of TUDCA for these experiments. Protein extraction: Frozen kidney tissue was ground in liquid nitrogen using a pestle and mortar. […] The amount of protein present in the solution was quantified by the Bicinchoninic Acid Protein Assay kit as per manufacturer's protocol. […] The immunoblot was detected using SuperSignal West Femto Maximum Sensitivity Substrate Kit. […]

procaspase-12 = experiment: Western blot for procaspase-12 in RPTE cells after cryopreservation injury; type: cell-based, human
Method: (§1) Cell culture: RPTE cells were grown in Renal Epithelial Cell Basal Medium (REBM) with full supplements at 37° C. in 5% CO2 incubator as per supplier's instructions. RPTE cells were able to proliferate for 6-8 passages under the culture conditions.
(§2) Cryopreservation injury: We have utilized a published cell culture model of cryopreservation injury. In brief, RPTE cells were grown to 80% confluence in the complete medium containing TUDCA or vehicle. The complete medium was then replaced with University of Wisconsin solution containing TUDCA or vehicle. The culture plates were subsequently incubated in a temperature-regulated refrigerator at 4° C. for 48 hours. […]
(§3) Protein extraction: Frozen kidney tissue was ground in liquid nitrogen using a pestle and mortar. […] The amount of protein present in the solution was quantified by the Bicinchoninic Acid Protein Assay kit as per manufacturer's protocol.
(§4) Western blot analysis: 20 μg of protein was mixed with SDS-PAGE sample buffer, boiled for 5 minutes, electrophoresed on a 12% Tris-HCl SDS-PAGE gel for 1 hour at 200 V, and electroblotted onto a nitrocellulose membrane. […] The immunoblot was detected using SuperSignal West Femto Maximum Sensitivity Substrate Kit. […]

caspase-9 [2] = experiment: Western blot for active caspase-9 in kidney after AKI; type: in vivo; conditions: rat kidney after AKI, Western blot with densitometry, p<0.01
Method: (§5) Rat model of AKI: All experiments were performed in accordance with the Institutional Animal Care and Use Committee. Six to eight week old Sprague-Dawley rats were anaesthetized by isoflurane gas, a midline abdominal incision was made, and bilateral renal pedicles were clamped for 45 minutes maintaining body temperature at 37° C. After removing the clamps, the abdomen was closed in two layers by using 4-0 absorbable sutures and Reflex 9 mm clips. Blood samples were obtained daily by tail vein puncture. Blood urea levels were measured by the improved Jung method using the QuantiChrom™ Urea Assay Kit as per manufacturer's protocol. Kidneys were harvested five days following surgery.
(§6) Administration of TUDCA: 200 mg/mL of TUDCA (Sigma) was dissolved in phosphate buffered saline at pH 7.5. […]
as §3, §4

caspase-9 [3] = experiment: Caspase-9 activity assay in RPTE cells after cryopreservation injury; type: cell-based, human; conditions: 100 μM and 150 μM, p<0.05
Method: as §1
Cryopreservation injury: We have utilized a published cell culture model of cryopreservation injury. In brief, RPTE cells were grown to 80% confluence in the complete medium containing TUDCA or vehicle. The complete medium was then replaced with University of Wisconsin solution containing TUDCA or vehicle. The culture plates were subsequently incubated in a temperature-regulated refrigerator at 4° C. for 48 hours. To simulate warm reperfusion phase of kidney transplantation, University of Wisconsin solution was replaced with complete medium containing TUDCA or vehicle, and cells were cultured for an additional 24 hours at 37° C. We used 100 μM or 150 μM of TUDCA for these experiments.
Caspase-9 Assay: The caspase-9 activity was measured in RPTE cells using Caspase-9 Assay kit. RPTE cells were suspended in 50 μL of chilled Cell Lysis Buffer and incubated on ice for 10 minutes. Subsequently, 50 μL of 2× Reaction Buffer and 5 μL of 1 mM LEHD-AFC substrate was added to each sample and the mixtures were incubated at 37° C. for 2 hours. The caspase-9 activity was quantified by measuring […].

[4] = TUDCA over UDCA; cited from earlier work
rat model of AKI [5] = experiment: Rat model of AKI (warm ischemia reperfusion), blood urea levels; type: in vivo; conditions: 400 mg/kg/day intraperitoneal
Method: as §5
(§7) Administration of TUDCA: 200 mg/mL of TUDCA (Sigma) was dissolved in phosphate buffered saline at pH 7.5. 400 mg/kg of TUDCA or equal volume of vehicle was administered to rats by daily intraperitoneal injection from three days prior to surgery […] to five days (day 5) following surgery. The TUDCA dose was based on previous studies and its solubility at physiological pH.

ERK1/2 [6] = experiment: Western blot for phosphorylated ERK1/2 in RPTE cells after cryopreservation injury; type: cell-based, human
Method: as §1, §2, §3, §4

ERK1/2 [7] = experiment: Western blot for ERK1/2 in kidney after AKI; type: in vivo; conditions: rat kidney after AKI, vs controls, p=0.29
Method: as §5, §6, §3, §4

caspase-3 = experiment: Caspase-3 activity assay in RPTE cells after cryopreservation injury; type: cell-based, human; conditions: 150-600 μM, dose-dependent, p<0.05
Method: as §1, §2, §3
Caspase-3 activity assay: The caspase-3 activity in kidney and RPTE extracts was quantified using Apo-One® Homogeneous Caspase-3/7 Assay kit as per the manufacturer's protocol. […] Fluorescence was measured by Spectramax M12 fluorescent plate reader (Molecular Devices) using wavelengths of 485 nmEx/520 nmEm. […]

p38 [8] = experiment: Western blot for p-p38 in kidney after AKI; type: in vivo; conditions: rat kidney after AKI, TUDCA vs vehicle group
Method: as §5, §6, §3, §4

JNK [9] = experiment: Western blot for JNK in RPTE cells after cryopreservation injury; type: cell-based, human; conditions: 100 and 150 μM
Method: as §1, §2, §3, §4

JNK [10] = experiment: Western blot for p-JNK in kidney after AKI; type: in vivo; conditions: rat kidney after AKI, TUDCA vs vehicle group
Method: as §5, §6, §3, §4

[11] = tested on: human renal proximal tubular epithelial cells (RPTE); experiment: Viability assay (MultiTox-Glo) in RPTE cells; type: cell-based; conditions: 15 μM to 1200 μM, 24 hours
Method: as §1
(§8) Viability and Cytotoxicity Assays: Cytotoxicity and viability were determined using MultiTox-Glo Multiplex Cytotoxicity Assay kit as per manufacturer's protocols. RPTE cells were seeded in 96-well culture plates at a density of 1.2×10^4 cells per well. Subsequently, TUDCA was added to the wells to achieve final concentrations of 15, 150, 300, 450, 600, and 1200 μM. Following 24 hours of culture, to determine viability, 50 μL of GF-AFC Reagent was added to each well. The plates were gently shaken and incubated at 37° C. for 30 minutes in the dark. The cell viability was determined by measuring fluorescence at 400 nmEx/505 nmEm. Subsequently, to determine cytotoxicity, 50 μL of AAF-Glo Reagent was added to each well. The plates were shaken gently and incubated at room temperature for 15 minutes in the dark. Cytotoxicity was determined by measuring luminescence as per manufacturer's protocol.

caspase-8 [12] = experiment: Western blot for active caspase-8 in kidney after AKI; type: in vivo; conditions: rat kidney after AKI, TUDCA- vs vehicle-treated rats
Method: as §5, §6, §3, §4

[13] = tested on: human renal proximal tubular epithelial cells (RPTE); experiment: Cytotoxicity assay (MultiTox-Glo) in RPTE cells; type: cell-based; conditions: 24 hours
Method: as §1, §8

caspase-12 = experiment: Western blot for active caspase-12 in kidney after AKI; type: in vivo; conditions: rat kidney after AKI, TUDCA- vs vehicle-treated rats
Method: as §5, §6, §3, §4

cell culture = conditions: has been shown; cited from earlier work
rat model of AKI [14] = experiment: Histological injury score (PAS stain) of kidney sections after AKI; type: in vivo; conditions: five days after AKI, 400 mg/kg/day
Method: as §5, §7
(§9) Histology and TUNEL assay: 4% paraformaldehyde-fixed, paraffin-embedded 5 μm kidney sections were stained with Periodic acid-Schiff (PAS) stain using standard methods. Histological examination was performed by a renal pathologist in a blinded fashion. Histological injury was scored based on the percentage of tubular cell necrosis, dilation, and cell detachment as per the PAS protocol. Reagents for the PAS assay were purchased from Sigma-Aldrich (St. Louis, Mo.) and the accompanying protocol was used. […] Apoptotic cells were detected by TUNEL assay using an APO-DIRECT™ kit as per manufacturer's protocol. The average injury score and percentage of TUNEL-positive cells from the renal cortex (superficial and deep), medulla (outer and inner), and papilla were counted and calculated separately and averaged to obtain the total score. […]

p38 [15] = experiment: Western blot for p38 in RPTE cells after cryopreservation injury; type: cell-based, human; conditions: 100 and 150 μM
Method: as §1, §2, §3, §4

rat model of AKI [16] = experiment: TUNEL assay of kidney sections after AKI; type: in vivo
Method: as §5, with “surgery. […]” for “surgery.”
as §9, with “Histological examination was performed by a renal pathologist in a blinded fashion.” left out, “protocol.” for “protocol. Reagents for the PAS assay were purchased from Sigma-Aldrich (St. Louis, Mo.) and the accompanying protocol was used.”

C[C@H](CCC(=O)NCCS(=O)(=O)O)[C@H]1CC[C@H]2[C@@H]3[C@@H](O)C[C@@H]4C[C@H](O)CC[C@]4(C)[C@H]3CC[C@]12C [TUDCA, tauroursodeoxycholic acid]
activation of procaspase-8 (death receptor pathway) (caspase-8 [1]): no effect | activation of procaspase-12 (ER-stress pathway) (procaspase-12): no effect | activation of caspase-9 (mitochondrial pathway of apoptosis) (caspase-9 [2]): significantly inhibited | caspase-9 activation after cryopreservation injury (caspase-9 [3]): significantly inhibited | solubility at physiological pH compared with UDCA [4]: higher solubility at physiological pH | elevation in blood urea levels vs vehicle group (rat model of AKI [5]; days 1 (p<0.001) and 2 (p<0.01) following AKI): significantly less elevation in blood urea levels | blood urea vs vehicle group (rat model of AKI [5]; days 3-5 following AKI): blood urea was lower in the TUDCA-treated rats, the difference was not statistically significant | activation of ERK1/2 (phosphorylated ERK1/2) (ERK1/2 [6]; 100 μM, p<0.05): activated ERK1/2 | activation of ERK1/2 (phosphorylated ERK1/2) (ERK1/2 [6]; 150 μM, p<0.01): activated ERK1/2 | activation of ERK1/2 (ERK1/2 [7]): increased ERK1/2 levels in two out of three rats; also recorded: increased activation of ERK1/2 in the TUDCA group, although without statistical significance | caspase-3 activation after cryopreservation injury (caspase-3): significantly inhibited | amount of p-p38 (p38 [8]): No difference | effect on JNK (JNK [9]): no effect | amount of p-JNK (JNK [10]): No difference | cell viability [11]: None of the tested concentrations of TUDCA decreased cell viability | activation of caspase-8 (death-receptor pathway) (caspase-8 [12]): no significant difference | cytotoxicity ([13]; 1200 μM, p<0.05): cytotoxic | cytotoxicity ([13]; 15 to 600 μM): did not cause cytotoxicity | activation of caspase-12 (ER-stress pathway) (caspase-12): no significant difference | safe concentrations in cell culture experiments (cell culture): safe in concentrations ranging from 100 nM up to 5 mM | histological injury vs vehicle-treated rats (rat model of AKI [14]; deep cortex, p<0.001): significantly less injury | histological injury vs vehicle-treated rats (rat model of AKI [14]; medulla or papilla): no differences | histological injury vs vehicle-treated rats (rat model of AKI [14]; superficial cortex, p<0.05): significantly less injury | effect on p38 (p38 [15]): no effect | TUNEL-positive cells vs vehicle-treated rats (rat model of AKI [16]; outer strip of the outer medulla, p<0.001): significantly less TUNEL-positive cells | TUNEL-positive cells vs vehicle-treated rats (rat model of AKI [16]; superficial and deep cortices, p<0.05): significantly less TUNEL-positive cells
